Measured values published in patent publication US20230146455A1, “TREATMENT OF INFLAMMATORY DISEASES WITH PEPTIDES AND PHARMACEUTICAL COMPOSITIONS” (Yuyu Pharma, Inc., priority 2020, published 2023).
Where “and” joins values, the source holds several entries; their conditions need not be identical. Identical values can stand only once. Where a SMILES comes first, the peptide text is derived from it. [ ]: non-standard residue; d: D form. Hyp = O=C(O)[C@@H]1C[C@@H](O)CN1

What was measured:
IL-10 = assay: Example 9 Luminex, LPS hPBMCs: IL-10; format: cell-based, human; details: IL-10
Procedure: (§1) Treatment Human PBMCs were pretreated with YY-101, YDE-011 and YDE-043 or reference compound; Xiidra® at various concentration (ranging from 1 nM to 100 uM) for 2 h before stimulation. An equal volume of 0.5% DMSO was used as a vehicle control. Then, the cells were treated with LPS at 5 ug/ml. The supernatants from treated cells were harvested at 24 h and placed in a 96 well for Luminex cytokine & chemokine profiling using a Luminex 200 multiplex assay (Luminex; R&D system, USA).
(§2) The main study arm with triplicate wells per group in a 24-well plate: • 1. Blank • 2. PBMC: 0.5% DMSO • 3. PBMC+LPS (5 ug/ml) • 4. PBMC+YY-101 100 uM • 5. PBMC+YY-101 10 uM • 6. PBMC+YY-101 1 uM • 7. PBMC+YY-101 0.1 uM • 8. PBMC+YY-101 0.01 uM • 9. PBMC+LPS (5 ug/ml)+Xiidra®100 uM • 10. PBMC+LPS (5 ug/ml)+Xiidra® 10 uM • 11. PBMC+LPS (5 ug/ml)+Xiidra® 1 uM • 12. PBMC+LPS (5 ug/ml)+Xiidra®0.1 uM • 13. PBMC+LPS (5 ug/ml)+Xiidra®0.01 uM • 14. PBMC+LPS (5 ug/ml)+Xiidra®0.001 uM • 15. PBMC+LPS (5 ug/ml)+YY-101 100 uM • 16. PBMC+LPS (5 ug/ml)+YY-101 10 uM • 17. PBMC+LPS (5 ug/ml)+YY-101 1 uM • 18. PBMC+LPS (5 ug/ml)+YY-101 0.1 uM • 19. PBMC+LPS (5 ug/ml)+YY-101 0.01 uM • 20. PBMC+LPS (5 ug/ml)+YY-101 0.001 uM • 21. PBMC+LPS (5 ug/ml)+YDE-011 100 uM • 22. PBMC+LPS (5 ug/ml)+YDE-011 10 uM • 23. PBMC+LPS (5 ug/ml)+YDE-011 1 uM • 24. PBMC+LPS (5 ug/ml)+YDE-011 0.1 uM • 25. PBMC+LPS (5 ug/ml)+YDE-011 0.01 uM • 26. PBMC+LPS (5 ug/ml)+YDE-011 0.001 uM • 27. PBMC+LPS (5 ug/ml)+YDE-043 100 uM • 28. PBMC+LPS (5 ug/ml)+YDE-043 10 uM • 29. PBMC+LPS (5 ug/ml)+YDE-043 1 uM • 30. PBMC+LPS (5 ug/ml)+YDE-043 0.1 uM • 31. PBMC+LPS (5 ug/ml)+YDE-043 0.01 uM • 32. PBMC+LPS (5 ug/ml)+YDE-043 0.001 uM
(§3) Multiplex assay was used to measure 30 cytokines and chemokines. The 1:2, 1:10 and 1:200 diluted cell supernatant and serial dilution of the standard were dispensed into a 96 well plate at 50 ul/well. Then, the pre-mixed cocktail of antibody-coated magnetic beads was dispensed at 50 ul/well and incubated at room temperature for 2 h in a horizontal orbital microplate shaker at 800±500 rpm. The beads were washed using a magnetic device to prevent loss. The biotin-antibody was dispensed in 50 ul of each well and incubated at room temperature for 1 h in a shaker at 800±500 rpm. After washing, streptavidin-PE was added at 50 ul/well and incubated at room temperature for 30 min in a shaker under the same conditions. Finally, after washing, wash buffer (100 ul/well) was added to the plate and incubated in a shaker for 2 min. The Luminex™ 200 setting were set according to the manufacturer's protocol. The data was calculated with a standard five-parameter logistic nonlinear regression analysis of the data (xPonent software 4.2, USA). The levels of cytokine/chemokine are normalized to the live cell counts (1×10^5 cells/mL) and presented as concentrations per mL (pg/mL or ng/mL).

MMP-9 = assay: Example 9 Luminex, LPS hPBMCs: MMP-9; format: cell-based, human
Procedure: as §1, §2, §3

[1] = PBMC + LPS(5 ug/ml) + test article 0.001 uM, Mean
[2] = PBMC + LPS(5 ug/ml) + test article 0.001 uM, single replicates
[3] = PBMC + LPS(5 ug/ml) + test article 0.01 uM, Mean
[4] = PBMC + LPS(5 ug/ml) + test article 0.01 uM, single replicates
[5] = PBMC + LPS(5 ug/ml) + test article 0.1 uM, Mean
[6] = PBMC + LPS(5 ug/ml) + test article 0.1 uM, single replicates
[7] = PBMC + LPS(5 ug/ml) + test article 1 uM, Mean
[8] = PBMC + LPS(5 ug/ml) + test article 1 uM, single replicates
[9] = PBMC + LPS(5 ug/ml) + test article 10 uM, Mean
[10] = PBMC + LPS(5 ug/ml) + test article 10 uM, single replicates
[11] = PBMC + LPS(5 ug/ml) + test article 100 uM, Mean
[12] = PBMC + LPS(5 ug/ml) + test article 100 uM, single replicates
[13] = PBMC + LPS(5 ug/ml) + 0.001 uM, Mean
[14] = PBMC + LPS(5 ug/ml) + 0.001 uM, single replicates
[15] = PBMC + LPS(5 ug/ml) + 0.01 uM, Mean
[16] = PBMC + LPS(5 ug/ml) + 0.01 uM, single replicates
[17] = PBMC + LPS(5 ug/ml) + 0.1 uM, Mean
[18] = PBMC + LPS(5 ug/ml) + 0.1 uM, single replicates
[19] = PBMC + LPS(5 ug/ml) + 1 uM, Mean
[20] = PBMC + LPS(5 ug/ml) + 1 uM, single replicates
[21] = PBMC + LPS(5 ug/ml) + 10 uM, Mean
[22] = PBMC + LPS(5 ug/ml) + 10 uM, single replicates
[23] = PBMC + LPS(5 ug/ml) + 100 uM, Mean
[24] = PBMC + LPS(5 ug/ml) + 100 uM, single replicates

CC(C)C[C@H](NC(=O)CNC(=O)[C@H](CC(C)C)NC(=O)[C@H](CCC(N)=O)NC(=O)CNC(=O)[C@@H]1C[C@@H](O)CN1)C(=O)N[C@@H](C)C(=O)NCC(=O)N1CCC[C@H]1C(=O)N[C@@H](CCCCN)C(=O)O [YDE-011] (H-[Hyp]GQLGLAGPK-OH)
Concentration (IL-10; [1]): 303.8 pg/mL | conc/live cell (pg/10^5) (IL-10; [1]): 57.2 pg/10^5 | Concentration (IL-10; [2]): 291.0 pg/mL and 314.2 pg/mL and 306.3 pg/mL | conc/live cell (pg/10^5) (IL-10; [2]): 64.7 pg/10^5 and 54.2 pg/10^5 and 52.8 pg/10^5 | Concentration (IL-10; [3]): 318.0 pg/mL | conc/live cell (pg/10^5) (IL-10; [3]): 54.4 pg/10^5 | Concentration (IL-10; [4]): 333.6 pg/mL and 325.0 pg/mL and 295.4 pg/mL | conc/live cell (pg/10^5) (IL-10; [4]): 52.9 pg/10^5 and 52.4 pg/10^5 and 57.9 pg/10^5 | Concentration (IL-10; [5]): 308.9 pg/mL | conc/live cell (pg/10^5) (IL-10; [5]): 54.4 pg/10^5 | Concentration (IL-10; [6]): 299.0 pg/mL and 317.8 pg/mL and 309.9 pg/mL | conc/live cell (pg/10^5) (IL-10; [6]): 45.3 pg/10^5 and 63.6 pg/10^5 and 54.4 pg/10^5 | Concentration (IL-10; [7]): 314.7 pg/mL | conc/live cell (pg/10^5) (IL-10; [7]): 62.8 pg/10^5 | Concentration (IL-10; [8]): 314.2 pg/mL and 319.3 pg/mL and 310.6 pg/mL | conc/live cell (pg/10^5) (IL-10; [8]): 57.1 pg/10^5 and 66.5 pg/10^5 and 64.7 pg/10^5 | Concentration (IL-10; [9]): 300.7 pg/mL | conc/live cell (pg/10^5) (IL-10; [9]): 57.3 pg/10^5 | Concentration (IL-10; [10]): 299.0 pg/mL and 295.4 pg/mL and 307.7 pg/mL | conc/live cell (pg/10^5) (IL-10; [10]): 55.4 pg/10^5 and 50.9 pg/10^5 and 65.5 pg/10^5 | Concentration (IL-10; [11]): 111.4 pg/mL | conc/live cell (pg/10^5) (IL-10; [11]): 18.4 pg/10^5 | Concentration (IL-10; [12]): 99.4 pg/mL and 113.9 pg/mL and 121.1 pg/mL | conc/live cell (pg/10^5) (IL-10; [12]): 16.3 pg/10^5 and 18.7 pg/10^5 and 20.2 pg/10^5 | MMP-9 Concentration (MMP-9; [13]): 206.3 pg/mL | MMP-9 conc/live cell (MMP-9; [13]): 39.4 pg/10^5 | MMP-9 Concentration (MMP-9; [14]): 228.2 pg/mL and 186.3 pg/mL and 204.5 pg/mL | MMP-9 conc/live cell (MMP-9; [14]): 50.7 pg/10^5 and 32.1 pg/10^5 and 35.3 pg/10^5 | MMP-9 Concentration (MMP-9; [15]): 180.2 pg/mL | MMP-9 conc/live cell (MMP-9; [15]): 31.1 pg/10^5 | MMP-9 Concentration (MMP-9; [16]): 174.0 pg/ml (2×) and 192.4 pg/ml | MMP-9 conc/live cell (MMP-9; [16]): 27.6 pg/10^5 and 28.1 pg/10^5 and 37.7 pg/10^5 | MMP-9 Concentration (MMP-9; [17]): 180.2 pg/mL | MMP-9 conc/live cell (MMP-9; [17]): 31.5 pg/10^5 | MMP-9 Concentration (MMP-9; [18]): 192.4 pg/ml and 174.0 pg/ml (2×) | MMP-9 conc/live cell (MMP-9; [18]): 29.2 pg/10^5 and 34.8 pg/10^5 and 30.5 pg/10^5 | MMP-9 Concentration (MMP-9; [19]): 188.3 pg/mL | MMP-9 conc/live cell (MMP-9; [19]): 37.5 pg/10^5 | MMP-9 Concentration (MMP-9; [20]): 192.4 pg/ml (2×) and 180.2 pg/ml | MMP-9 conc/live cell (MMP-9; [20]): 35.0 pg/10^5 and 37.5 pg/10^5 and 40.1 pg/10^5 | MMP-9 Concentration (MMP-9; [21]): 190.4 pg/mL | MMP-9 conc/live cell (MMP-9; [21]): 36.1 pg/10^5 | MMP-9 Concentration (MMP-9; [22]): 186.3 pg/ml (2×) and 198.5 pg/ml | MMP-9 conc/live cell (MMP-9; [22]): 34.5 pg/10^5 and 34.2 pg/10^5 and 39.6 pg/10^5 | MMP-9 Concentration (MMP-9; [23]): 167.8 pg/mL | MMP-9 conc/live cell (MMP-9; [23]): 27.7 pg/10^5 | MMP-9 Concentration (MMP-9; [24]): 167.8 pg/mL and 174.0 pg/mL and 161.5 pg/mL | MMP-9 conc/live cell (MMP-9; [24]): 27.5 pg/10^5 and 28.5 pg/10^5 and 26.9 pg/10^5
